Here are results for 13 compounds from patent publication US12528814B2, “Bifunctional degraders of interleukin-1 receptor-associated kinases and therapeutic use thereof” (NURIX THERAPEUTICS, INC., priority 2020, dated 2026).

Where two headings read alike, the source gives them in different places.

In assay [1] the target is T1, IRAK4 (Homo sapiens (Human), UniProt Q9NWZ3). In words: IRAK4 Degradation HiBiT Assay. The note with it: HiBiT-tagged Jurkat cells, 4 hrs; for Dmax: Jurkat; for DC50: read-out: Cellular IRAK4 HiBiT: DC50.
Target sequence in this assay (Q9NWZ3 whole entry): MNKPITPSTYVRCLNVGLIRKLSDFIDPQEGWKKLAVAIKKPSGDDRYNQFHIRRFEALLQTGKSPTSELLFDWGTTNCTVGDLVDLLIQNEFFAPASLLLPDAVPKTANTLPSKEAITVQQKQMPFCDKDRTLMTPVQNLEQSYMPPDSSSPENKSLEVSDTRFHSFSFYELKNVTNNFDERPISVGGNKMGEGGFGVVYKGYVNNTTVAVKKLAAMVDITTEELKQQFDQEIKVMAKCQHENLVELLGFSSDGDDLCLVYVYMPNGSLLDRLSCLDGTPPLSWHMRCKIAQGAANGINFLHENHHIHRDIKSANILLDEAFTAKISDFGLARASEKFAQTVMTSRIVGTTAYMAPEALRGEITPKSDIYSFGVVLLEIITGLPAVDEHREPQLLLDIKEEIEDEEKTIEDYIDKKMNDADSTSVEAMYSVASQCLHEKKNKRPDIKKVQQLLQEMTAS
The target of assay [2] is T1, IRAK4. Description: IRAK4 Biochemical HTRF Kinase Assay. The note with it: read-out: IRAK4 HTRF biochemical: IC50. In outline:
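HTRF KinEASE STK S1 format measuring IRAK4 phosphorylation of biotinylated peptide; reaction solution of 5 μM STK-S1, 10 mM ATP, 10 mM MgCl2 added (stock, to 10 μl final), 90 min at ambient temperature, detection 60 min. IC50 from sixteen-point duplicate curves by non-linear regression.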
Target sequence in this assay (Q9NWZ3 whole entry, species assumed): as the sequence (Q9NWZ3 whole entry) above

[3] abbreviates: read-out: Cellular IRAK4 HiBiT: Dmax, Table 4.
Where [4] appears, read: read-out: Cellular IRAK4 HiBiT: Dmax, Table 5, multiple runs.

As to `CNc1cc(-c2ccc3cc(C#N)cnn23)ncc1-c1nnc([C@H]2CC[C@H](NC(=O)CCCCC(=O)N[C@H](C(=O)N3C[C@H](O)C[C@H]3C(=O)N[C@@H](C)c3ccc(-c4scnc4C)cc3)C(C)(C)C)CC2)s1` [Example 57, N1-((1r,4S)-4-(5-(6-(3-cyanopyrrolo[1,2-b]pyridazin-7-yl)-4-(methylamino)pyridin-3-yl)-1,3,4-thiadiazol-2-yl)cyclohexyl)-N6—((S)-1-((2S,4R)-4-hydroxy-2-(((S)-1-(4-(4-methylthiazol-5-yl)phenyl)ethyl)carbamoyl)pyrrolidin-1-yl)-3,3-dimethyl-1-oxobutan-2-yl)adipamide], the Dmax was determined as 107% in assay [1] (setting [3]) and 114% in assay [1] (setting [4]). Moreover, the DC50 in assay [1] (Table 4) is 89.6 nM; in assay [1] (Table 5, multiple runs) it was 81.4 nM. Moreover, the IC50 in assay [2] (Table 4) worked out at 2.9 nM; in assay [2] (Table 5, multiple runs), 2.9 nM.

In the case of `CNc1cc(-c2ccc3cc(C#N)cnn23)ncc1-c1nnc(C23CCC(NC(=O)CN4CCN(c5ccc6c(c5)C(=O)N(C5CCC(=O)NC5=O)C6=O)CC4)(CC2)CC3)s1` (stereo not drawn) [Example 105, N-(4-(5-(6-(3-cyanopyrrolo[1,2-b]pyridazin-7-yl)-4-(methylamino)pyridin-3-yl)-1,3,4-thiadiazol-2-yl)bicyclo[2.2.2]octan-1-yl)-2-(4-(2-(2,6-dioxopiperidin-3-yl)-1,3-dioxoisoindolin-5-yl)piperazin-1-yl)acetamide], the Dmax in assay [1] (setting [4]) amounted to 106%. The DC50 in assay [1] (Table 5, multiple runs) was 39.8 nM. In addition, in assay [2] (Table 5, multiple runs), the IC50 is 1.2 nM.

As to `CC(C)Nc1cc(-c2ccc3cc(C#N)cnn23)ncc1-c1nnc(N2CCN(CC3CCN(c4ccc(C(=O)N(C)C5CCC(=O)NC5=O)cc4)CC3)CC2)s1` (stereo not drawn) [Example 34, 4-(4-((4-(5-(6-(3-cyanopyrrolo[1,2-b]pyridazin-7-yl)-4-(isopropylamino)pyridin-3-yl)-1,3,4-thiadiazol-2-yl)piperazin-1-yl)methyl)piperidin-1-yl)-N-(2,6-dioxopiperidin-3-yl)-N-methylbenzamide], the Dmax in assay [1] (setting [3]) and in assay [1] (setting [4]) was 85% each time. Moreover, the DC50 in assay [1] (Table 4) was determined as 326 nM; in assay [1] (Table 5, multiple runs) it was 326 nM. In addition, the IC50 in assay [2] (Table 4) was 2 nM; in assay [2] (Table 5, multiple runs) it was 2 nM.

As for `CNc1cc(-c2ccc3cc(C#N)cnn23)ncc1-c1nnc(C23CCC(NC(=O)CCC(=O)N[C@H](C(=O)N4C[C@H](O)C[C@H]4C(=O)N[C@@H](C)c4ccc(-c5scnc5C)cc4)C(C)(C)C)(CC2)CC3)s1` [Example 128, N1-(4-(5-(6-(3-cyanopyrrolo[1,2-b]pyridazin-7-yl)-4-(methylamino)pyridin-3-yl)-1,3,4-thiadiazol-2-yl)bicyclo[2.2.2]octan-1-yl)-N4—((S)-1-((2S,4R)-4-hydroxy-2-(((S)-1-(4-(4-methylthiazol-5-yl)phenyl)ethyl)carbamoyl)pyrrolidin-1-yl)-3,3-dimethyl-1-oxobutan-2-yl)succinamide], in assay [1] (setting [4]), the Dmax was 139%. The DC50 in assay [1] (Table 5, multiple runs) was determined as 432 nM. Also, the IC50 in assay [2] (Table 5, multiple runs) is 1.7 nM.

Consider `CC(C)Nc1cc(-c2ccc3cc(C#N)cnn23)ncc1-c1nnc(N2CCN(C(=O)CCCCCNc3ccc4c(c3)C(=O)N(C3CCC(=O)NC3=O)C4=O)CC2)s1` (stereo not drawn) [Example 6, 7-(5-(5-(4-(6-((2-(2,6-dioxopiperidin-3-yl)-1,3-dioxoisoindolin-5-yl)amino)hexanoyl)piperazin-1-yl)-1,3,4-thiadiazol-2-yl)-4-(isopropylamino)pyridin-2-yl)pyrrolo[1,2-b]pyridazine-3-carbonitrile], for which the Dmax was 82% in assay [1] (setting [3]) and 69% in assay [1] (setting [4]). The DC50 came out at 74.6 nM in assay [1] (Table 4) and 70 nM in assay [1] (Table 5, multiple runs). Also, the IC50 is 2.6 nM in assay [2] (Table 4) and 2.6 nM in assay [2] (Table 5, multiple runs).

Turning to `CNc1cc(-c2ccc3cc(C#N)cnn23)ncc1-c1nnc([C@H]2CC[C@H](NC(=O)CCOCCNc3ccc4c(c3)C(=O)N(C3CCC(=O)NC3=O)C4=O)CC2)s1` (stereo partly drawn) [Example 63, N-((1r,4r)-4-(5-(6-(3-cyanopyrrolo[1,2-b]pyridazin-7-yl)-4-(methylamino)pyridin-3-yl)-1,3,4-thiadiazol-2-yl)cyclohexyl)-3-(2-((2-(2,6-dioxopiperidin-3-yl)-1,3-dioxoisoindolin-5-yl)amino)ethoxy)propanamide], the values for the Dmax in assay [1] (setting [3]) and in assay [1] (setting [4]) were 80% and 85%, respectively. The DC50 in assay [1] (Table 4) was 8.1 nM; in assay [1] (Table 5, multiple runs) it was 7.6 nM. Further, the IC50 in assay [2] (Table 4) came out at 0.7 nM; in assay [2] (Table 5, multiple runs), 0.6 nM.

`CNc1cc(-c2ccc3cc(C#N)cnn23)ncc1-c1nnc([C@H]2CC[C@H](NC(=O)C3CCN(c4ccc5c(c4)C(=O)N(C4CCC(=O)NC4=O)C5=O)CC3)CC2)s1` (stereo partly drawn) [Example 152, N-((1r,4r)-4-(5-(6-(3-cyanopyrrolo[1,2-b]pyridazin-7-yl)-4-(methylamino)pyridin-3-yl)-1,3,4-thiadiazol-2-yl)cyclohexyl)-1-(2-(2,6-dioxopiperidin-3-yl)-1,3-dioxoisoindolin-5-yl)piperidine-4-carboxamide]: the Dmax in assay [1] (setting [4]) came out at 113%. Also, the DC50 in assay [1] (Table 5, multiple runs) came to 63 nM. Also, the IC50 in assay [2] (Table 5, multiple runs) was 0.9 nM.

Regarding `CC(C)Nc1cc(-c2ccc3cc(C#N)cnn23)ncc1-c1nnc(N2CCC3(CCN(C(=O)c4ccc5c(c4)C(=O)N(C4CCC(=O)NC4=O)C5)CC3)CC2)s1` (stereo not drawn) [Example 87, 7-(5-(5-(9-(2-(2,6-dioxopiperidin-3-yl)-3-oxoisoindoline-5-carbonyl)-3,9-diazaspiro[5.5]undecan-3-yl)-1,3,4-thiadiazol-2-yl)-4-(isopropylamino)pyridin-2-yl)pyrrolo[1,2-b]pyridazine-3-carbonitrile], the Dmax in assay [1] (setting [4]) amounted to 70%. The DC50 in assay [1] (Table 5, multiple runs) is 15.8 nM. Besides, in assay [2] (Table 5, multiple runs), the IC50 was 2.4 nM.

With `CNc1cc(-c2ccc3cc(C#N)cnn23)ncc1-c1nnc(N2CC3CCC(C2)N3C2CCN(C(=O)C[C@H](NC(=O)[C@@H]3C[C@@H](O)CN3C(=O)[C@@H](NC(=O)C3(F)CC3)C(C)(C)C)c3ccc(-c4scnc4C)cc3)CC2)s1` [Example 166, (2S,4R)—N-((1S)-3-(4-(3-(5-(6-(3-cyanopyrrolo[1,2-b]pyridazin-7-yl)-4-(methylamino)pyridin-3-yl)-1,3,4-thiadiazol-2-yl)-3,8-diazabicyclo[3.2.1]octan-8-yl)piperidin-1-yl)-1-(4-(4-methylthiazol-5-yl)phenyl)-3-oxopropyl)-1-((S)-2-(1-fluorocyclopropane-1-carboxamido)-3,3-dimethylbutanoyl)-4-hydroxypyrrolidine-2-carboxamide], in assay [1] (setting [4]), the Dmax amounted to 114%. The DC50 in assay [1] (Table 5, multiple runs) was 67.7 nM. Further, in assay [2] (Table 5, multiple runs), the IC50 amounted to 1 nM.

For the compound `CNc1cc(-c2ccc3cc(C#N)cnn23)ncc1-c1nnc([C@H]2CC[C@H](N(C)CC3CCN(c4ccc(C(=O)NC5CCC(=O)NC5=O)nc4)CC3)CC2)s1` (stereo partly drawn) [Example 167, 5-(4-((((1r,4r)-4-(5-(6-(3-cyanopyrrolo[1,2-b]pyridazin-7-yl)-4-(methylamino)pyridin-3-yl)-1,3,4-thiadiazol-2-yl)cyclohexyl)(methyl)amino)methyl)piperidin-1-yl)-N-(2,6-dioxopiperidin-3-yl)picolinamide], in assay [1] (setting [4]), the Dmax worked out at 107%. Also, the DC50 in assay [1] (Table 5, multiple runs) came out at 20.1 nM. Besides, in assay [2] (Table 5, multiple runs), the IC50 came to 0.5 nM.

Regarding `N#Cc1cnn2c(-c3cc(NC4CCOCC4)c(-c4nnc(C56CCC(NC(=O)CCOCCOCCOCCNc7cccc8c7C(=O)N(C7CCC(=O)NC7=O)C8=O)(CC5)CC6)s4)cn3)ccc2c1` (stereo not drawn) [Example 2, N-(4-(5-(6-(3-cyanopyrrolo[1,2-b]pyridazin-7-yl)-4-((tetrahydro-2H-pyran-4-yl)amino)pyridin-3-yl)-1,3,4-thiadiazol-2-yl)bicyclo[2.2.2]octan-1-yl)-3-(2-(2-(2-((2-(2,6-dioxopiperidin-3-yl)-1,3-dioxoisoindolin-4-yl)amino)ethoxy)ethoxy)ethoxy)propanamide], the values for the Dmax in assay [1] (setting [3]) and in assay [1] (setting [4]) were 71% and 75%, respectively. For the same compound, the DC50 in assay [1] (Table 4) turned out to be 27.8 nM; in assay [1] (Table 5, multiple runs) it was 27.2 nM. Besides, the IC50 amounted to 1.6 nM in assay [2] (Table 4) and 1.8 nM in assay [2] (Table 5, multiple runs).

`CNc1cc(-c2ccc3cc(C#N)cnn23)ncc1-c1nnc([C@H]2CC[C@H](N(C)C(=O)Cc3ccc4c(c3)CN(C3CCC(=O)NC3=O)C4=O)CC2)s1` (stereo partly drawn) [Example 168, N-((1r,4r)-4-(5-(6-(3-cyanopyrrolo[1,2-b]pyridazin-7-yl)-4-(methylamino)pyridin-3-yl)-1,3,4-thiadiazol-2-yl)cyclohexyl)-2-(2-(2,6-dioxopiperidin-3-yl)-1-oxoisoindolin-5-yl)-N-methylacetamide]: the Dmax in assay [1] (setting [4]) worked out at 20%. Besides, in assay [1] (Table 5, multiple runs), the DC50 turned out to be 2.63 nM. In addition, in assay [2] (Table 5, multiple runs), the IC50 was found to be 0.6 nM.

Consider `Cc1ncsc1-c1ccc([C@H](C)NC(=O)[C@@H]2C[C@@H](O)CN2C(=O)[C@@H](NC(=O)CCOCCOCCOCCC(=O)N2CCN(c3nnc(-c4cnc(-c5ccc6cc(C#N)cnn56)cc4NC(C)C)s3)CC2)C(C)(C)C)cc1` [Example 78, (2S,4R)-1-((S)-2-(tert-butyl)-16-(4-(5-(6-(3-cyanopyrrolo[1,2-b]pyridazin-7-yl)-4-(isopropylamino)pyridin-3-yl)-1,3,4-thiadiazol-2-yl)piperazin-1-yl)-4,16-dioxo-7,10,13-trioxa-3-azahexadecanoyl)-4-hydroxy-N—((S)-1-(4-(4-methylthiazol-5-yl)phenyl)ethyl)pyrrolidine-2-carboxamide], for which the Dmax in assay [1] (setting [4]) was 74%. For the same compound, in assay [1] (Table 5, multiple runs), the DC50 turned out to be 332 nM. The IC50 in assay [2] (Table 5, multiple runs) came out at 2.4 nM.
